Converted amounts (≈) assume the structure as drawn.
Assays:
[1] = test system: Mycobacterium tuberculosis; test: Antimycobacterial activity against Mycobacterium tuberculosis H37Rv assessed as inhibition of bacterial growth by resazurin dye based fluorescence analysis; format: functional
[2] = test system: Mycobacterium tuberculosis; test: Antimycobacterial activity against Mycobacterium tuberculosis H37Rv; format: functional

Row | Compound | MIC [1] [µM] | other results
1 | NC(=O)CNS(=O)(=O)c1ccc(-c2nnn(CC3CCC(F)(F)CC3)n2)cc1 | 0.1 (≈ 0.0414 µg/mL) | –
2 | COC(=O)c1c(NC(=O)c2ccccc2F)sc2c1CCCCC2 | – | MIC [2]: 20.2 µg/mL (≈ 58.1 µM)
3 | O=S(=O)(NCCO)c1ccc(-c2cn(Cc3ccncc3)nn2)cc1 | 0.1 (≈ 0.0359 µg/mL) | –
4 | NC(=O)CNS(=O)(=O)c1ccc(-c2nnn(Cc3ccc(F)cc3)n2)cc1Cl | 0.1 (≈ 0.0425 µg/mL) | –
5 | CC(=O)N1/C(=C/c2ccc(-c3ccsc3)cc2)C(=O)c2ccccc21 | – | MIC90 [2]: 0.336 µM (≈ 0.116 µg/mL); MIC99 [2]: 0.6 µM (≈ 0.207 µg/mL)
6 | CC(=O)N1N=C(c2ccc3oc(NC(=O)c4cccc(Cl)c4)nc3c2)CC1c1cccs1 (stereo not drawn) | – | MIC [2]: 12.5 µg/mL (≈ 26.9 µM)
7 | COc1cc(-c2nnn(Cc3ccc(F)cc3)n2)ccc1S(=O)(=O)NCC(N)=O | 0.1 (≈ 0.042 µg/mL) | –
8 | CC(=O)N1N=C(c2ccc3oc(S)nc3c2)CC1c1cccs1 (stereo not drawn) | – | MIC [2]: 6.25 µg/mL (≈ 18.2 µM)
9 | CC(c1ccc(F)cc1)n1nnc(-c2ccc(S(=O)(=O)NCCO)cc2)n1 (stereo not drawn) | 0.1 (≈ 0.0391 µg/mL) | –
10 | CC(=O)N1N=C(c2ccc3oc(-c4ccccc4Cl)nc3c2)CC1c1cccs1 (stereo not drawn) | – | MIC [2]: 25 µg/mL (≈ 59.3 µM)
11 | C[C@@H](O)CNS(=O)(=O)c1ccc(-c2nnn(Cc3ccncc3)n2)cc1 | 0.1 (≈ 0.0374 µg/mL) | –
12 | O=S(=O)(NCCO)c1ccc(-c2nnn(Cc3ccc(C(F)(F)F)cc3)n2)cc1 | 0.1 (≈ 0.0427 µg/mL) | –
13 | COc1cc(-c2nnn(CC3CCC(F)(F)CC3)n2)ccc1S(=O)(=O)NCC(N)=O | 0.1 (≈ 0.0444 µg/mL) | –
14 | CC(c1ccc(F)cc1)n1cc(-c2ccc(S(=O)(=O)NCCO)cc2)nn1 (stereo not drawn) | 0.1 (≈ 0.039 µg/mL) | –
15 | O=S(=O)(NCCO)c1ccc(-c2nnn(CC3CCOCC3)n2)cc1 | 0.1 (≈ 0.0367 µg/mL) | –
16 | N#CCNS(=O)(=O)c1ccc(-c2nnn(CC3CCOCC3)n2)cc1 | 0.1 (≈ 0.0362 µg/mL) | –
17 | NC(=O)CNS(=O)(=O)c1ccc(-c2nnn(Cc3ccc(F)c(F)c3)n2)cc1 | 0.1 (≈ 0.0408 µg/mL) | –
18 | FC(F)(F)c1ccc(-c2nnc(S)o2)cc1 | – | MIC [2]: > 25 µg/mL
19 | COC(=O)CNS(=O)(=O)c1ccc(-c2nnn(Cc3ccncc3)n2)cc1 | 0.1 (≈ 0.0388 µg/mL) | –
20 | CC(=O)N1N=C(c2ccc3oc(C(=O)c4ccccc4)nc3c2)CC1c1cccs1 (stereo not drawn) | – | MIC [2]: 50 µg/mL (≈ 120 µM)
21 | O=S(=O)(NCCO)c1ccc(-c2nnn(CC3CCCCC3)n2)cc1F | 0.1 (≈ 0.0383 µg/mL) | –
22 | Sc1nnc(-c2ccccc2Cl)o1 | – | MIC [2]: 21.2 µg/mL (≈ 99.7 µM)
23 | O=S(=O)(NCCO)c1ccc(-c2nnn(CC3CCCCO3)n2)cc1 (stereo not drawn) | 0.1 (≈ 0.0367 µg/mL) | –
24 | Cc1ccc(Cn2nnc(-c3ccc(S(=O)(=O)NCC(N)=O)cc3)n2)cc1 | 0.1 (≈ 0.0386 µg/mL) | –
25 | COc1ccc(Cn2nnc(-c3ccc(S(=O)(=O)NCCO)cc3)n2)cc1 | 0.1 (≈ 0.0389 µg/mL) | –
26 | N#CCNS(=O)(=O)c1ccc(-c2nnn(Cc3ccncc3)n2)cc1 | 0.1 (≈ 0.0355 µg/mL) | –
27 | CC(c1ccc(F)cc1)n1nnc(-c2ccc(S(=O)(=O)NCC(N)=O)cc2)n1 (stereo not drawn) | 0.1 (≈ 0.0404 µg/mL) | –

Row | Compound | MIC [1] [µM] | other results
28 | CC(=O)N1N=C(c2ccc3oc(N)nc3c2)CC1c1cccs1 (stereo not drawn) | – | MIC [2]: 6.25 µg/mL (≈ 19.1 µM)
29 | Cc1cc(S(=O)(=O)NCCO)c(F)cc1-c1nnn(Cc2ccc(F)cn2)n1 | 0.1 (≈ 0.041 µg/mL) | –
30 | Cc1cnc(Cn2nnc(-c3ccc(S(=O)(=O)NCC#N)cc3)n2)cn1 | 0.1 (≈ 0.037 µg/mL) | –
31 | NC(=O)CNS(=O)(=O)c1ccc(-c2nnn(Cc3ccc(F)cn3)n2)cc1 | 0.1 (≈ 0.0391 µg/mL) | –
32 | O=S(=O)(NCCO)c1ccc(-c2nnn(Cc3cccnc3)n2)cc1 | 0.1 (≈ 0.036 µg/mL) | –
33 | CCOC(=O)c1c(NC(=O)c2c(F)c(F)c(F)c(F)c2F)sc2c1CCCCC2 | – | MIC [2]: 1.9 µg/mL (≈ 4.38 µM)
34 | CC(=O)N1/C(=C/c2cccc(-c3ccc(C(F)(F)F)cc3)c2)C(=O)c2ccccc21 | – | MIC90 [2]: 11.6 µM (≈ 4.73 µg/mL); MIC99 [2]: 17.5 µM (≈ 7.13 µg/mL)
35 | COc1ccc(Cn2nnc(-c3ccc(S(=O)(=O)NC[C@@H](C)O)cc3)n2)cc1 | 0.1 (≈ 0.0403 µg/mL) | –
36 | CC(=O)N1/C(=C/c2ccc(-c3ccc(OC(F)(F)F)cc3)cc2)C(=O)c2cc(Cl)ccc21 | – | MIC90 [2]: > 20 µM; MIC99 [2]: > 20 µM
37 | COc1ccc(Cn2cc(-c3ccc(S(=O)(=O)NCCO)cc3)nn2)cc1 | 0.1 (≈ 0.0388 µg/mL) | –
38 | NC(=O)CNS(=O)(=O)c1ccc(-c2cn(CC3CCC(F)(F)CC3)nn2)cc1 | 0.1 (≈ 0.0413 µg/mL) | –
39 | O=S(=O)(NCCO)c1ccc(-c2nnn(CC3CCCOC3)n2)cc1 (stereo not drawn) | 0.1 (≈ 0.0367 µg/mL) | –
40 | O=S(=O)(NCCO)c1ccc(-c2nnn(Cc3ccc(F)cn3)n2)cc1F | 0.1 (≈ 0.0396 µg/mL) | –
41 | COc1ccc(-c2nnc(S)o2)cc1 | – | MIC [2]: 20.8 µg/mL (≈ 99.9 µM)
42 | O=S(=O)(NCCO)c1ccc(-c2nnn(Cc3ccc(F)cc3)n2)cc1F | 0.1 (≈ 0.0395 µg/mL) | –
43 | Cc1cccc(Cn2nnc(-c3ccc(S(=O)(=O)NCCO)cc3)n2)n1 | 0.1 (≈ 0.0374 µg/mL) | –
44 | COC(=O)c1sc(NC(=O)c2c(F)c(F)c(F)c(F)c2F)c(C(=O)ON)c1C | – | MIC [2]: 4.9 µg/mL (≈ 11.5 µM)
45 | COc1cc(-c2nc3cc(C4=NN(C(C)=O)C(c5cccs5)C4)ccc3o2)cc(OC)c1OC (stereo not drawn) | – | MIC [2]: 25 µg/mL (≈ 52.4 µM)
46 | CC(=O)N1/C(=C/c2ccc(Oc3ccc(Cl)cc3)cc2)C(=O)c2cc(Cl)ccc21 | – | MIC90 [2]: 6.02 µM (≈ 2.55 µg/mL); MIC99 [2]: 6.87 µM (≈ 2.91 µg/mL)
47 | S=c1[nH]nc(C2CCCCC2)o1 | – | MIC [2]: > 25 µg/mL
48 | C[C@H](O)CNS(=O)(=O)c1ccc(-c2nnn(Cc3ccc(F)cc3)n2)cc1 | 0.1 (≈ 0.0391 µg/mL) | –
49 | CC(=O)N1/C(=C/c2ccc(-c3ccccc3)cc2)C(=O)c2cc(C)ccc21 | – | MIC90 [2]: > 20 µM; MIC99 [2]: > 20 µM
50 | COc1ccccc1-c1nc2cc(C3=NN(C(C)=O)C(c4cccs4)C3)ccc2o1 (stereo not drawn) | – | MIC [2]: 25 µg/mL (≈ 59.9 µM)
51 | Cc1ccc(Cn2cc(-c3ccc(S(=O)(=O)NCCO)cc3)nn2)nc1 | 0.1 (≈ 0.0373 µg/mL) | –
52 | Cc1cc(S(=O)(=O)NCCO)ccc1-c1nnn(CC2CCCCO2)n1 (stereo not drawn) | 0.1 (≈ 0.0381 µg/mL) | –
53 | Sc1nnc(-c2ccccc2Br)o1 | – | MIC [2]: > 25 µg/mL
